Experimental data as given in PubChem BioAssay (NCI).
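96-well plates; 48 h exposure; 5 concentrations. Endpoints by linear interpolation between flanking doses. Not reached: highest tested concentration assigned. Here, GI50 denotes the concentration required for 50% inhibition of growth. TGI marks complete inhibition of growth.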

Assays:
Experiment in all cases: DTP human tumour cell line panel, 48 h
[1] = test system: HL-60(TB) leukemia
[2] = test system: OVCAR-5 ovarian
[3] = test system: SF-295 CNS
[4] = test system: SNB-75 CNS
[5] = test system: DU-145 prostate
[6] = test system: RPMI-8226 leukemia
[7] = test system: UO-31 renal
[8] = test system: HOP-92 NSCLC
[9] = test system: CCRF-CEM leukemia
[10] = test system: SK-MEL-2 melanoma
[11] = test system: M14 melanoma
[12] = test system: IGROV1 ovarian
[13] = test system: TK-10 renal
[14] = test system: PC-3 prostate
[15] = test system: NCI-H23 lung
[16] = test system: SK-OV-3 ovarian
[17] = test system: A498 renal
[18] = test system: UACC-257 melanoma
[19] = test system: T-47D breast
[20] = test system: HOP-62 NSCLC
[21] = test system: U251 CNS
[22] = test system: ACHN renal
[23] = test system: NCI-H460 lung
[24] = test system: MOLT-4 leukemia
[25] = test system: MCF7 breast
[26] = test system: MDA-MB-435
[27] = test system: MDA-MB-231 breast
[28] = test system: A549 NSCLC
[29] = test system: MALME-3M melanoma
[30] = test system: CAKI-1 renal
[31] = test system: COLO 205 colon
[32] = test system: SK-MEL-5 melanoma
[33] = test system: SW-620 colon
[34] = test system: 786-0 renal
[35] = test system: HS 578T breast
[36] = test system: EKVX NSCLC
[37] = test system: SK-MEL-28 melanoma
[38] = test system: UACC-62 melanoma
[39] = test system: HCT-15 colon
[40] = test system: SN12C renal
[41] = test system: HCT-116 colon
[42] = test system: NCI-H226 lung
[43] = test system: SF-539 CNS
[44] = test system: RXF 393 renal

SMILES: OC(c1cc2cc(Cl)ccc2c2cc(C(F)(F)F)ccc12)C1CCCCN1 (stereo not given)
- GI50 [1]: 1920 nM
- TGI [1]: 3720 nM
- GI50 [2]: 1480 nM
- TGI [2]: 2940 nM
- GI50 [3]: 1960 nM
- TGI [3]: 3690 nM
- GI50 [4]: 1690 nM
- TGI [4]: 3140 nM
- GI50 [5]: 1900 nM
- TGI [5]: 3370 nM
- GI50 [6]: 2210 nM
- TGI [6]: 4920 nM
- GI50 [7]: 1590 nM
- TGI [7]: 3060 nM
- GI50 [8]: 1420 nM
- TGI [8]: 2970 nM

SMILES: C=C(C)[C@@H]1CC[C@]2(CN)CC[C@]3(C)[C@H](CC[C@@H]4[C@@]5(C)CCCNC(C)(C)[C@@H]5CC[C@]43C)[C@@H]12
- GI50 [9]: 2270 nM
- TGI [9]: 4920 nM
- GI50 [10]: 2110 nM
- TGI [10]: 3880 nM
- GI50 [11]: 1690 nM
- TGI [11]: 3180 nM
- GI50 [12]: 1820 nM
- TGI [12]: 3570 nM
- GI50 [2]: 1590 nM
- TGI [2]: 3110 nM
- GI50 [13]: 1860 nM
- TGI [13]: 3520 nM
- GI50 [14]: 1770 nM
- TGI [14]: 3200 nM
- GI50 [15]: 1700 nM
- TGI [15]: 3300 nM
- GI50 [16]: 1820 nM
- TGI [16]: 3400 nM
- GI50 [17]: 1500 nM
- TGI [17]: 2920 nM
- GI50 [18]: 2090 nM
- TGI [18]: 4350 nM
- GI50 [19]: 1880 nM
- TGI [19]: 3810 nM
- GI50 [3]: 1780 nM
- TGI [3]: 3290 nM
- GI50 [20]: 1930 nM
- TGI [20]: 3730 nM
- GI50 [21]: 1800 nM
- TGI [21]: 3330 nM
- GI50 [22]: 1770 nM
- TGI [22]: 3190 nM
- GI50 [23]: 1240 nM
- TGI [23]: 2670 nM
- GI50 [4]: 1630 nM
- TGI [4]: 3110 nM
- GI50 [24]: 1930 nM
- TGI [24]: 4470 nM
- GI50 [25]: 1270 nM
- TGI [25]: 2700 nM
- GI50 [26]: 1600 nM
- TGI [26]: 2980 nM
- GI50 [27]: 1790 nM
- TGI [27]: 3520 nM
- GI50 [28]: 1950 nM
- TGI [28]: 3710 nM
- GI50 [5]: 1590 nM
- TGI [5]: 2970 nM
- GI50 [29]: 1750 nM
- TGI [29]: 3630 nM
- GI50 [30]: 1660 nM
- TGI [30]: 3020 nM
- GI50 [31]: 1400 nM
- TGI [31]: 2910 nM
- GI50 [32]: 1560 nM
- TGI [32]: 3000 nM
- GI50 [33]: 1530 nM
- TGI [33]: 3050 nM
- GI50 [34]: 1740 nM
- TGI [34]: 3570 nM
- GI50 [35]: 1800 nM
- TGI [35]: 4000 nM
- GI50 [36]: 1770 nM
- TGI [36]: 3390 nM
- GI50 [7]: 1560 nM
- TGI [7]: 3050 nM
- GI50 [37]: 1740 nM
- TGI [37]: 3380 nM
- GI50 [38]: 1870 nM
- TGI [38]: 3420 nM
- GI50 [39]: 1190 nM
- TGI [39]: 2490 nM
- GI50 [40]: 1750 nM
- TGI [40]: 3310 nM
- GI50 [8]: 1690 nM
- TGI [8]: 3280 nM
- GI50 [41]: 1420 nM
- TGI [41]: 2960 nM
- GI50 [42]: 1880 nM
- TGI [42]: 3800 nM
- GI50 [43]: 1620 nM
- TGI [43]: 3090 nM
- GI50 [44]: 1750 nM
- TGI [44]: 3490 nM
